Experimental data taken from publication PMC7071076, “Antibacterial Activity and Pharmacokinetic Profile of a Promising Antibacterial Agent: 22-(2-Amino-phenylsulfanyl)-22-Deoxypleuromutilin” (Molecules, 2020).
Converted amounts (≈) assume the structure as drawn.

What was measured:
E. coli ATCC 25922 = experiment: MIC testing (broth dilution, 96-well plate); type: cell-based; conditions: Escherichia coli, ATCC25922
Protocol: (§1) The MIC of amphenmulin against MRSA, Escherichia coli, Salmonella typhimurium, Enterococcus faecalis, and Enterococcus faecium were determined using tiamulin as controls. MIC values were measured by the method of previous work. Staphylococcus aureus ATCC 29213 was used as the quality control bacteria, and the quality control range was referred to the Clinical and Laboratory Standards Institute (CLSI). The bacteria solution was diluted to ~10^6 CFU/mL with Mueller–Hinton (MH) broth for MRSA, Escherichia coli and Salmonella typhimurium while Trypticase Soy Broth for Enterococcus faecalis and Enterococcus faecium. Drugs were dissolved in an aqueous solution of N, N-dimethylformamide (DMF) at a concentration of 2560 µg/mL, and then diluted with broth to prepare working solution (1280 µg/mL). The drug susceptibility testing was performed in 96-well plate. A total of 20 µL of working solution was added into column 1 and well mixed as a 10-fold dilution, following which Serial 2-fold dilutions were prepared to provide concentration ranges of 128–0.0078 µg/mL. Blank broth (no cultures) and bacteria solution (drugs replaced by blank solvent) were set as drug-free controls. Each 96-well plate was cultured at 37 °C for 24 h. The MIC value is the lowest concentration of amphenmulin which inhibits the visible growth of bacteria. The experiment was repeated three times.

E. faecalis ATCC 29212 = experiment: MIC testing (broth dilution, 96-well plate); type: cell-based; conditions: Enterococcus faecalis, ATCC29212
Protocol: as §1

E. faecium ATCC 35667 = experiment: MIC testing (broth dilution, 96-well plate); type: cell-based; conditions: Enterococcus faecium, ATCC35667
Protocol: as §1

S. aureus ATCC 29213 = experiment: MIC testing (broth dilution, 96-well plate); type: cell-based; conditions: Staphylococcus aureus, ATCC29213
Protocol: as §1

[1] = test system: S. typhimurium ATCC 14028; experiment: MIC testing (broth dilution, 96-well plate); type: cell-based; conditions: Salmonella enterica
Protocol: as §1

MRSA ATCC 43300 [2] = experiment: Constant concentration time-kill curves; type: cell-based, Staphylococcus aureus
Protocol: Time–kill curve experiments were performed in triplicate according previous report. In this experiment, MRSA, in logarithmic phase, was diluted to 10^6 CFU/mL with MH broth. […] The mixtures and control which was free of drug were cultured at 37 °C with shaking. A total of 20 µL aliquots from solutions were serially diluted 10-fold in 0.9% saline, at different time intervals (0, 3, 6, 9, and 24 h). Then the dilutions were plated onto MH agar medium and incubated at 37 °C for 18–24 h. The bacterial colonies were counted, and results were represented as the logarithm of the colony numbers. The time-kill curve was constructed by plotting log CFU/mL versus time.

[3] = Acute oral toxicity study; conditions: both sexes, KM, mouse, in vivo, 5000 mg/kg; mice, oral (gavage), single dose
Protocol: (§2) The acute toxicity test mainly referred to the previous reports with some modifications. Seven male and seven female KM mice in SPF grade were used for this study. Amphenmulin was formulated in DMSO and given in a single- dose at 5000 mg/kg by gavage, while the control group were given DMSO without drug. […] The median lethal dose (LD50) was calculated by modified Karber method on day 15. The experiment was repeated twice.

KM mice = experiment: Acute oral toxicity study; conditions: mouse, in vivo, 5000 mg/kg
Protocol: as §2

MRSA ATCC 43300 [4] = experiment: MRSA wound infection model: wound size; type: in vivo, mice; conditions: after treatment for three days; 100 μL drug (3 mg/mL) on the wound
Protocol: (§3) Six weeks SPF-ICR female mice were used for this study. The Experimental model, inducted of inflammatory in mice by skin excision, was established referring to existing methods with some alterations. The mice were anesthetized with the intravenous injection of 1% sodium pentobarbital. After their hair on the back was shaved, the mice were anesthetized and the back skin was perforated with a biopsy perforator at a depth of fascia injury. The inoculum (50 μL), containing 10^9 CFU/mL of the indicated microorganism (MRSA ATCC 43300), was applied on the wound for three times at 30 min intervals. 100 μL drug (3 mg/mL) was administrated on the wound at 1 h after inoculation for three consecutive days. A total of 100 μL blank matrix was given to the infected control group and the non-infected group in the same way. The wound was wrapped with sterile gauze. During the treatment, all mice were kept individually and free to eat and drink.
The wounds were examined on day 1 and days 3 after treatment. The area of wound were measured according to previous reports with some modifications. In each group, six mice were taken out and anesthetized to take photos and measure the size of the wound as the results.

MRSA ATCC 43300 [5] = experiment: MRSA wound infection model: wound bacterial burden; type: in vivo, mice
Protocol: as §3
At the end of the examination, mice were anesthetized and killed. Tissue samples, reaching to the muscle membrane, were removed from the middle of the wound surface and homogenized in 0.9% saline. Serially diluted aliquots of homogenate were cultured on high-salt mannitol agar plate at 37 °C for 24 h. The log of the colony number was used for statistical analysis.

Structure (SMILES): C=C[C@]1(C)C[C@@H](OC(=O)CSc2ccccc2N)[C@]2(C)[C@H](C)CC[C@]3(CCC(=O)[C@H]32)[C@@H](C)[C@@H]1O [Amphenmulin, 22-(2-amino-phenylsulfanyl)-22-deoxypleuromutilin]
- MIC (E. coli ATCC 25922): > 128 mg/L
- MIC (E. faecalis ATCC 29212): > 128 mg/L
- MIC (E. faecium ATCC 35667): 0.125 mg/L (≈ 0.257 µM)
- MIC (S. aureus ATCC 29213): 0.0156 mg/L (≈ 0.0321 µM)
- MIC [1]: > 128 mg/L
- colony numbers of MRSA (MRSA ATCC 43300 [2]; 0.5×MIC, 3 h): 7.17±0.08 log CFU/mL
- colony numbers of MRSA (MRSA ATCC 43300 [2]; 0.5×MIC, 6 h): 7.83±0.16 log CFU/mL
- colony numbers of MRSA (MRSA ATCC 43300 [2]; 0.5×MIC, 9 h): 8.22±0.15 log CFU/mL
- colony numbers of MRSA (MRSA ATCC 43300 [2]; 0.5×MIC, 24 h): 8.33±0.10 log CFU/mL
- colony numbers of MRSA (MRSA ATCC 43300 [2]; 1×MIC, 3 h): 6.84±0.08 log CFU/mL
- colony numbers of MRSA (MRSA ATCC 43300 [2]; 1×MIC, 6 h): 7.44±0.06 log CFU/mL
- colony numbers of MRSA (MRSA ATCC 43300 [2]; 1×MIC, 9 h): 7.86±0.13 log CFU/mL
- colony numbers of MRSA (MRSA ATCC 43300 [2]; 1×MIC, 24 h): 7.70±0.46 log CFU/mL
- colony numbers of MRSA (MRSA ATCC 43300 [2]; 2×MIC, 3 h): 6.43±0.13 log CFU/mL
- colony numbers of MRSA (MRSA ATCC 43300 [2]; 2×MIC, 6 h): 6.56±0.23 log CFU/mL
- colony numbers of MRSA (MRSA ATCC 43300 [2]; 2×MIC, 9 h): 7.07±0.42 log CFU/mL
- colony numbers of MRSA (MRSA ATCC 43300 [2]; 2×MIC, 24 h): 7.26±0.62 log CFU/mL
- colony numbers of MRSA (MRSA ATCC 43300 [2]; 4×MIC, 3 h): 5.96±0.66 log CFU/mL
- colony numbers of MRSA (MRSA ATCC 43300 [2]; 4×MIC, 6 h): 6.13±0.06 log CFU/mL
- colony numbers of MRSA (MRSA ATCC 43300 [2]; 4×MIC, 9 h): 5.77±0.15 log CFU/mL
- colony numbers of MRSA (MRSA ATCC 43300 [2]; 4×MIC, 24 h): 4.04±0.58 log CFU/mL
- colony numbers of MRSA (MRSA ATCC 43300 [2]; 8×MIC, 3 h): 5.91±0.03 log CFU/mL
- colony numbers of MRSA (MRSA ATCC 43300 [2]; 8×MIC, 6 h): 5.98±0.09 log CFU/mL
- colony numbers of MRSA (MRSA ATCC 43300 [2]; 8×MIC, 9 h): 5.78±0.09 log CFU/mL
- colony numbers of MRSA (MRSA ATCC 43300 [2]; 8×MIC, 24 h): 3.55±0.16 log CFU/mL
- colony numbers of MRSA (MRSA ATCC 43300 [2]; 16×MIC, 3 h): 5.79±0.12 log CFU/mL
- colony numbers of MRSA (MRSA ATCC 43300 [2]; 16×MIC, 6 h): 5.77±0.15 log CFU/mL
- colony numbers of MRSA (MRSA ATCC 43300 [2]; 16×MIC, 9 h): 5.64±0.11 log CFU/mL
- colony numbers of MRSA (MRSA ATCC 43300 [2]; 16×MIC, 24 h): 2.97±0.06 log CFU/mL
- colony numbers of MRSA (MRSA ATCC 43300 [2]; 32×MIC, 3 h): 5.60±0.18 log CFU/mL
- colony numbers of MRSA (MRSA ATCC 43300 [2]; 32×MIC, 6 h): 5.91±0.56 log CFU/mL
- colony numbers of MRSA (MRSA ATCC 43300 [2]; 32×MIC, 9 h): 5.11±0.36 log CFU/mL
- colony numbers of MRSA (MRSA ATCC 43300 [2]; 32×MIC, 24 h): 2.43±0.67 log CFU/mL
- type of antibacterial activity in time-kill curve (MRSA ATCC 43300 [2]; at the concentration of 4× MIC): bacteriostatic activity
- LD50 at 14 days [3]: > 5000 mg/kg
- mortality (KM mice): No mice died
- abnormal symptoms (KM mice; po): increase in the heart rate, excitement of some mice and inappetence
- wound area (MRSA ATCC 43300 [4]): 0.47 ± 0.09 cm^2
- number of bacteria in wound tissue vs infected group (MRSA ATCC 43300 [5]; one day after treatment, p < 0.05): significant decrease
- number of bacteria in wound tissue (MRSA ATCC 43300 [5]; three days after treatment, 100 μL drug (3 mg/mL) on the wound): 4.47 ± 0.66 log10 CFU/mL
